Strand notation (5' to 3'): a small letter for the sugar, then the base; units joined by * are phosphorothioate-linked, units joined directly phosphodiester-linked; [ ] holds rarer units or linkages, { } end groups; capitals alone tell only the bases. d = 2'-deoxy (DNA)
System: human PBMCs
Experiment: Human PBMC cytokine response assay (IFN-γ and IFN-α in cell-free medium by ELISA), with or without cPLGA;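 as to IFN-α (pg/ml) mean: 20 µg/mL compound for 24 hours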;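 as to IFN-γ (pg/ml) mean: 20 µg/mL compound for 24 hours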
Format: cell-based
[1] = Table 24, mean of donors 28234-28237
[2] = Table 25, mean of donors 28250-28253
[3] = donor 28066, 20 ug/ml, 24 h, + PLGA = premixed with 100 μg/ml cPLGA
[4] = donor 28067, 20 ug/ml, 24 h, + PLGA = premixed with 100 μg/ml cPLGA
[5] = donor 28068, 20 ug/ml, 24 h, + PLGA = premixed with 100 μg/ml cPLGA
[6] = mean of Donors 1-2, 20 μg/ml, 24 h
[7] = mean of Donors 3-4, 20 μg/ml, 24 h
[8] = mean of Donors 5-6, 20 μg/ml (mixtures: 20 μg/ml total), 24 h
[9] = mean of Donors 7-8, 20 μg/ml, 24 h
[10] = mean of Donors 9-12, 20 μg/ml, 24 h
[11] = mean of donors 110, 112, 119, 120, Table 14
[12] = mean of donors 28057-28060, Table 16
[13] = mean of donors 28065-28068, 20 ug/ml, 24 h, + PLGA = premixed with 100 μg/ml cPLGA
[14] = mean of donors 28185-28188, Table 15
[15] = mean of donors 28218-28221, 20 μg/ml, 24 h

Substance: 5′-TGACTGTGAACCTTAGAGATGA-3′ (SEQ ID NO: 3) (dT*dG*dA*dC*dT*dG*dT*dG*dA*dA*dC*dC*dT*dT*dA*dG*dA*dG*dA*dT*dG*dA) [Compound P-7, negative control, reference compound]
- IFN-γ mean (Table 11, mean of donors): 34 pg/mL
- IFN-α (Table 24, donor 28234): 62 pg/mL
- IFN-γ (Table 24, donor 28234): 13 pg/mL
- IFN-α (Table 24, donor 28235): 16 pg/mL
- IFN-γ (Table 24, donor 28235): 4 pg/mL
- IFN-α (Table 24, donor 28236): 16 pg/mL
- IFN-γ (Table 24, donor 28236): 7 pg/mL
- IFN-α (Table 24, donor 28237): 16 pg/mL
- IFN-γ (Table 24, donor 28237): 4 pg/mL
- IFN-α mean [1]: 28 pg/mL
- IFN-γ mean [1]: 7 pg/mL
- IFN-a (Table 25, donor 28250): 16 pg/mL
- IFN-g (Table 25, donor 28250, polynucleotides/spacers at amounts equivalent to the CIC, spacers alone 9 uM): 104 pg/mL
- IFN-a (Table 25, donor 28251): 16 pg/mL
- IFN-g (Table 25, donor 28251): 1 pg/mL
- IFN-a (Table 25, donor 28252): 16 pg/mL
- IFN-g (Table 25, donor 28252): 39 pg/mL
- IFN-a (Table 25, donor 28253): 16 pg/mL
- IFN-g (Table 25, donor 28253): 1 pg/mL
- IFN-a mean [2]: 16 pg/mL
- IFN-g mean [2]: 36 pg/mL
- IFN-α (donor 110, Table 14): 2 pg/mL
- IFN-γ (donor 110, Table 14): 124 pg/mL
- IFN-α (donor 112, Table 14): 32 pg/mL
- IFN-γ (donor 112, Table 14): 24 pg/mL
- IFN-α (donor 119, Table 14): 474 pg/mL
- IFN-γ (donor 119, Table 14): 16 pg/mL
- IFN-α (donor 120, Table 14): 2 pg/mL
- IFN-γ (donor 120, Table 14): 40 pg/mL
- IFN-α (donor 28057, Table 16): 0 pg/mL
- IFN-γ (donor 28057, Table 16): 1 pg/mL
- IFN-α (donor 28058, Table 16): 0 pg/mL
- IFN-γ (donor 28058, Table 16): 2 pg/mL
- IFN-α (donor 28059, Table 16): 0 pg/mL
- IFN-γ (donor 28059, Table 16): 3 pg/mL
- IFN-α (donor 28060, Table 16): 0 pg/mL
- IFN-γ (donor 28060, Table 16): 4 pg/mL
- IFN-γ (pg/ml) 28065 (donor 28065 (high background), 20 ug/ml, 24 h, + PLGA = premixed with 100 μg/ml cPLGA, 1000 = outside assay limits): 397 pg/mL
- IFN-α (pg/ml) 28065 (donor 28065, 20 ug/ml, 24 h, + PLGA = premixed with 100 μg/ml cPLGA): 0 pg/mL
- IFN-α (pg/ml) 28066 [3]: 8 pg/mL
- IFN-γ (pg/ml) 28066 [3]: 1 pg/mL
- IFN-α (pg/ml) 28067 [4]: 0 pg/mL
- IFN-γ (pg/ml) 28067 [4]: 8 pg/mL
- IFN-α (pg/ml) 28068 [5]: 3 pg/mL
- IFN-γ (pg/ml) 28068 [5]: 15 pg/mL
- IFN-a (donor 28185, Table 15): 4 pg/mL
- IFN-g (donor 28185, Table 15): 0 pg/mL
- IFN-a (donor 28186, Table 15): 25 pg/mL
- IFN-g (donor 28186, Table 15): 4 pg/mL
- IFN-a (donor 28187, Table 15): 5 pg/mL
- IFN-g (donor 28187, Table 15): 19 pg/mL
- IFN-a (donor 28188, Table 15): 31 pg/mL
- IFN-g (donor 28188, Table 15): 2 pg/mL
- IFN-a (pg/ml) 28218 (donor 28218, 20 μg/ml, 24 h): 32 pg/mL
- IFN-g (pg/ml) 28218 (donor 28218, 20 μg/ml, 24 h): 5 pg/mL
- IFN-a (pg/ml) 28219 (donor 28219, 20 μg/ml, 24 h): 32 pg/mL
- IFN-g (pg/ml) 28219 (donor 28219, 20 μg/ml, 24 h): 5 pg/mL
- IFN-a (pg/ml) 28220 (donor 28220, 20 μg/ml, 24 h): 32 pg/mL
- IFN-g (pg/ml) 28220 (donor 28220, 20 μg/ml, 24 h): 5 pg/mL
- IFN-a (pg/ml) 28221 (donor 28221, 20 μg/ml, 24 h): 32 pg/mL
- IFN-g (pg/ml) 28221 (donor 28221, 20 μg/ml, 24 h): 5 pg/mL
- IFN-α (pg/ml) mean [6]: 0 pg/mL
- IFN-γ (pg/ml) mean [6]: 231 pg/mL
- IFN-α (pg/ml) mean [7]: 15 pg/mL
- IFN-γ (pg/ml) mean [7]: 5 pg/mL
- IFN-α (pg/ml) mean [8]: 57 pg/mL
- IFN-γ (pg/ml) mean [8]: 37 pg/mL
- IFN-α (pg/ml) mean [9]: 0 pg/mL
- IFN-γ (pg/ml) mean [9]: 2 pg/mL
- IFN-α mean [10]: 2
- IFN-γ mean [10]: 3
- IFN-α (pg/ml) mean [11]: 128 pg/mL
- IFN-γ (pg/ml) mean [11]: 51 pg/mL
- IFN-α (pg/ml) mean [12]: 0 pg/mL
- IFN-γ (pg/ml) mean [12]: 2 pg/mL
- IFN-α (pg/ml) mean [13]: 3 pg/mL
- IFN-γ (pg/ml) mean [13]: 105 pg/mL
- IFN-a (pg/ml) mean [14]: 16 pg/mL
- IFN-g (pg/ml) mean [14]: 6 pg/mL
- IFN-a (pg/ml) mean [15]: 32 pg/mL
- IFN-g (pg/ml) mean [15]: 5 pg/mL
- IFN-a (pg/ml) ×2 (mean ×2, Table 15): 32 pg/mL
- IFN-g (pg/ml) ×4 (mean ×4, Table 15): 25 pg/mL
- immunomodulatory activity (IFN-γ / IFN-α secretion), in words (used alone (no cPLGA)): no activity

From patent US9028845B2, “Chimeric immunomodulatory compounds and methods of using the same-IV” (Dynavax Technologies Corporation, priority 2001, dated 2015)
